According to US7947818B2, “Heteromolecular metal-humic (chelate) complexes” (priority 2007, dated 2011):

Assays:
[1] = system: cucumber plants (sensitive variety, Anico); assay: Pot study: foliar Fe content of cucumber plants in basic, calcareous soil; type: in vivo; conditions: Fe dose 4 ppm; after 30 days of cultivation; soil pH=8.04, % CO3=23%
Excerpt: Study of the effect of applying a heteromolecular humate-iron citrate complex in cucumber plants (sensitive variety, Anico) cultivated in a basic (pH=8.04), calcareous (% CO3=23%) soil. In this study, performed in pots, the effect of the synthesis chelate of reference in correcting iron chlorosis (Fe-EDDHA orto-orto isomer) was compared to the effect of the heteromolecular humate-Fe citrate complex prepared according to Example 1; in relation to these compounds' capacity to increase iron absorption in cucumber (v anico) plants sensitive to iron chlorosis. The results obtained after 30 days of cultivation are shown in the following figure, where the Fe-EDDHA chelate orto-orto isomer is called (o,o) and the heteromolecular complex is called (H-Cit). The Fe doses applied were: 4 ppm (o, o) and 4 and 8 ppm (H-Cit).

nectarine trees = assay: Field study: iron chlorosis and crop of nectarine trees in basic, calcareous soil; type: in vivo; conditions: dose d1 (5 g of Fe per tree)
Experimental: In this study, the effect of the heteromolecular humate-Fe citrate complex on nectarine trees cultivated in a basic, calcareous soil was analysed. This effect was compared to the effect of an Fe EDDHA chelate of reference. This test was performed in a field with a high chlorotic power, wherein a clear response to the standard Fe chelate (Fe EDDHA) is not observed.

| Compound | increase in foliar Fe content [1] | Commercial production increase with respect to control (nectarine trees) | Crop 21 days after treatment (nectarine trees) | Green colour (1-10) 62 days post-treatment (nectarine trees; leaves' green colour) | Green colour (1-10) 85 days post-treatment (nectarine trees; leaves' green colour) |
| --- | --- | --- | --- | --- | --- |
| O=C([O-])C(NCCNC(C(=O)[O-])c1ccccc1[O-])c1ccccc1[O-].[Fe+3] (single isomer, unassigned) [(o,o), Fe-EDDHA orto-orto isomer] | approximately 50% | – | – | – | – |
| Fe EDDHA [FeEDDHA] | – | +57.9 | 5.8 kg/tree | 5.3 | 5.9 |
